Literature values in patent US20110190266A1, “5,6,6a,7,8,9-HEXAHYDRO-2H-PYRIDOPHTHALAZINONE INHIBITORS OF POLY(ADP-RIBOSE)POLYMERASE (PARP)” (priority 2010, published 2011).
pKi: −log10 of the molar value. Where two headings read alike, the source gives them in different places.

Assays:
[1] = biological target: PARP-1 (Homo sapiens, UniProt P09874)
[2] = system: BRCA2-deficient cell line V-C8; conditions: BRCA2-deficient V-C8 compared with the BRCA2 wild type control
[3] = system: CAPAN-1 cells; conditions: CAPAN-1 cells in DMEM supplemented with FCS (20% v/v), glutamine and antibiotics
[4] = system: BRCA2-deficient tumors

PARP-1, sequence (P09874 whole entry, species assumed): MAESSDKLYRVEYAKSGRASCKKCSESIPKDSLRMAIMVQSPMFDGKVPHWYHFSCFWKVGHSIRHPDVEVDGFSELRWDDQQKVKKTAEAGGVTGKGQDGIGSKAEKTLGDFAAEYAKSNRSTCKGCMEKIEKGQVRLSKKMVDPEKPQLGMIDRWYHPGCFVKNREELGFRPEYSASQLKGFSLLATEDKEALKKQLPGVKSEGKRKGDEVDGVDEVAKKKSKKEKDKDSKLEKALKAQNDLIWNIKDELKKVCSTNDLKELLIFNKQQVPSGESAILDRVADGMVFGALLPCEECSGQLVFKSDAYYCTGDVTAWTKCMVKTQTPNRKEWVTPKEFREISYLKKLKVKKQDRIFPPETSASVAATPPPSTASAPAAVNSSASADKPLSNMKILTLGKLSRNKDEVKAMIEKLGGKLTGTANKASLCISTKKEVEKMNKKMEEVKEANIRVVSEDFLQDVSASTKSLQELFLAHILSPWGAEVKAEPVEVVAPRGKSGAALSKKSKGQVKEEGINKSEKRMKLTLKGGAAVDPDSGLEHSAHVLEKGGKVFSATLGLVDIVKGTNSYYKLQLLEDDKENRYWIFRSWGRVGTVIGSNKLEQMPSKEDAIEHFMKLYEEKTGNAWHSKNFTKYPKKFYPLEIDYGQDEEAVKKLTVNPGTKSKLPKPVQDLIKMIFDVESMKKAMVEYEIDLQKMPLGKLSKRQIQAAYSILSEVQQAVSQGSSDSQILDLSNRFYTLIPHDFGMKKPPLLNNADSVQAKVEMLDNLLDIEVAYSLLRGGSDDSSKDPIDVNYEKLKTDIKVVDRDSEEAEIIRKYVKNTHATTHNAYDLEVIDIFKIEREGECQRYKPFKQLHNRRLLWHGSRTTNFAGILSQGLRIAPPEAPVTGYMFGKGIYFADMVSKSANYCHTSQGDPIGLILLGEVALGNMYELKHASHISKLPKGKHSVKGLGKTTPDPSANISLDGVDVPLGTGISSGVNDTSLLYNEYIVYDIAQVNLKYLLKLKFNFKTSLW

| SMILES | pKi ([1]; PARP-1 inhibitor) | sensitivity in clonogenic survival assay [2] | sensitivity to PARP inhibition in clonogenic survival assay [3] | in vivo efficacy, tumor growth [4] | pKi ([1]; moderately potent PARP-1 inhibitor) |
| --- | --- | --- | --- | --- | --- |
| CN(C)Cc1ccc(-c2nc3cccc4c3n2CCNC4=O)cc1 [AG14361] | 8.30 | exhibited sensitivity |  |  |  |
| O=C1CCC(=O)N1c1cc(Cc2n[nH]c(=O)c3ccccc23)ccc1F [KU0058684] |  |  | showing sensitivity | in vivo efficacy in blocking the growth of BRCA2-deficient tumors |  |
| Cc1nc2c(O)cccc2c(=O)[nH]1 [NU1025] |  | exhibited sensitivity |  |  | 7.30 |
